Structures are written as SMILES.

One may read the melting point as the temperature, or range, at which the solid turns liquid.

One data set relates to Western Flower Thrips (Frankliniella occidentalis). Description: Insecticidal test against western flower thrips, sprayed cucumber leaves (Test Example 3). Conditions: 500 ppm, sprayed 20 ml/cup onto cucumber, thirty larvae on cut first foliage leaves, after 7 days. The class given is in vivo. The procedure: A formulation of a test compound obtained in Formulation Example 5 was diluted with water so that the active ingredient concentration came to 500 ppm to prepare a test spray solution. The seeds of cucumber were planted in polyethylene cups and grown until their first foliage leaves developed, and the above test spray solution was sprayed at the rate of 20 ml/cup onto these cucumber plants. After the chemical solution sprayed onto the cucumber plants was dried, the first foliage leaves were cut off and placed on a water-containing filter paper (70 mm in diameter) in a polyethylene cup (110 mm in diameter). Thirty larvae of western flower thrips (Frankliniella occidentalis) were set free in the polyethylene cup, and the lid was put on the polyethylene cup. After 7 days, the number of surviving insects was examined.
As to `CC#CCOc1cc(OCC#CC)ncn1` [(1)], the “number of surviving insects” value was “zero”. Still for that read-out and setting: with `CC#CCOc1ncnc(Oc2ccccc2F)c1F` [(183)] the entry was “zero”; with `CCC#CCOc1cc(OCC#CCC)ncn1` [(3)], “zero”. With `C#CCOc1cc(Oc2cccc(C(F)(F)F)c2)ncn1` [(17)], the “number of surviving insects” value was “zero”. As to `CC#CCOc1cc(O[C@@H]2CCC[C@H]2C)ncn1` (relative stereo) [(169)], the “number of surviving insects” value is “zero”. On to `C#CCOc1cc(Oc2c(F)cccc2F)ncn1` [(21)], for which the “number of surviving insects” value is given as “zero”. On the same count and under the same terms, with `CC#CCOc1ncnc(Oc2c(F)cccc2F)c1F` [(190)] the entry was “zero”; with `CC#CCOc1cc(Oc2cc(F)ccc2F)ncn1` [(43)], “zero”. On the same count and under the same terms, with `CC#CCOc1cc(-c2ccc(F)cc2F)ncn1` [(44)] the entry was “zero”; with `C#CC(C)Oc1cc(-c2ccccc2F)ncn1` (centres unmarked) [(150)], “zero”; with `C#CC(C)Oc1cc(-c2cccc(F)c2F)ncn1` (centres unmarked) [(134)], “zero”. On the same count and under the same terms, with `CC#CCOc1ncnc(Cc2ccccc2F)c1F` [(191)] the entry was “zero”. With `C#CCOc1cc(Oc2ccc(C(F)(F)F)cc2)ncn1` [(20)], the “number of surviving insects” value is “zero”.

As for `C#CCOc1cc(-c2ccc(F)cc2)ncn1` [(58)], the “number of surviving insects” value is reported as “zero”. Same read-out and setting: the entry for `C#CCOc1cc(Oc2cccc(Cl)c2)ncn1` [(15)] is “zero”. Same read-out and setting: the entry for `CC#CCOc1cc(Oc2ccccc2F)ncn1` [(63)] is “zero”; for `C#CCOc1cc(OCC#CC)ncn1` [(2)] it is “zero”; for `CC#CCOc1ncnc(Oc2cccc(F)c2F)c1F` [(180)] it is “zero”. For the compound `CC#CCOc1cc(Oc2ccc(F)cc2Cl)ncn1` [(16)], the “number of surviving insects” value is recorded as “zero”. Same read-out and setting: with `CC#CCOc1cc(Cc2ccccc2F)ncn1` [(88)] the entry was “zero”; with `CC#CCOc1cc(OCC#CC(C)(C)C)ncn1` [(7)], “zero”.

Turning to `CC#CCOc1cc(Oc2c(F)cc(F)cc2F)ncn1` [(45)], the “number of surviving insects” value is given as “zero”.

Test system in the next data set: not given
Assay: not given
Conditions: not given
On to `CC#CCOc1cc(-c2ccc(F)cc2F)ncn1` [present compound (44), 4-(2-butynyloxy)-6-(2,4-difluorophenyl)pyrimidine], for which the melting point worked out at 63.9 °C. The compound `C#CCOc1cc(Oc2cccc(Cl)c2)ncn1` [present compound (15), 4-(3-chlorophenoxy)-6-(2-propynyloxy)pyrimidine] returned a melting point of 71.6 °C. Same read-out and setting: the figure for `CC#CCOc1cc(Oc2c(F)cc(F)cc2F)ncn1` [present compound (45), 4-(2-butynyloxy)-6-(2,4,6-trifluorophenoxy)pyrimidine] is 60.3 °C. The same measure, in the same setting: the figure for `C#CCOc1cc(Oc2ccc(OC)cc2)ncn1` [present compound (31), 4-(4-methoxyphenoxy)-6-(2-propynyloxy)pyrimidine] is 72 °C; for `CC#CCOc1cc(N(C)c2ccccc2)ncn1` [present compound (93), 4-(N-methyl-N-phenylamino)-6-(2-butynyloxy)pyrimidine] it is 57.6 °C. Same read-out and setting: with `C#CCOc1cc(Oc2cccc(Cl)c2Cl)ncn1` [present compound (26), 4-(2,3-dichlorophenoxy)-6-(2-propynyloxy)pyrimidine] the figure was 91.9 °C. Take `CC#CCOc1cc(Oc2ccc([N+](=O)[O-])cc2F)ncn1` [present compound (65), 4-(2-fluoro-4-nitrophenoxy)-6-(2-butynyloxy)pyrimidine]: the melting point came out at 132.1 °C.

`CC#CCOc1cc(OCc2cccc(F)c2F)ncn1` [present compound (76), 4-(2,3-difluorobenzyloxy)-6-(2-butynyloxy)pyrimidine] returned a melting point of 84.9 °C. The same measure, in the same setting: the figure for `C#CCOc1cc(Oc2ccc(Cl)c(Cl)c2)ncn1` [present compound (23), 4-(3,4-dichlorophenoxy)-6-(2-propynyloxy)pyrimidine] is 109.2 °C; for `CC#CCOc1cc(Oc2ccc(C#N)cc2)ncn1` [present compound (41), 4-(2-butynyloxy)-6-(4-cyanophenoxy)pyrimidine] it is 162 °C; for `C#CCOc1cc(Oc2ccccc2C)ncn1` [present compound (27), 4-(2-methylphenoxy)-6-(2-propynyloxy)pyrimidine] it is 64.8 °C. The same measure, in the same setting: the figure for `CC#CCOc1cc(Oc2ccc(F)c(F)c2)ncn1` [present compound (10), 4-(2-butynyloxy)-6-(3,4-difluorophenoxy)pyrimidine] is 109.7 °C; for `CC#CCOc1cc(Oc2c(F)cccc2F)ncn1` [present compound (33), 4-(2-butynyloxy)-6-(2,6-difluorophenoxy)pyrimidine] it is 79.8 °C. On the same count and under the same terms, the figure for `CC#CCOc1cc(Oc2cccc(C(C)=O)c2)ncn1` [present compound (71), 4-(2-butynyloxy)-6-(3-acetylphenoxy)pyrimidine] is 94 °C.

In the case of `C#CCOc1cc(Oc2ccccc2)ncn1` [present compound (51), 4-phenoxy-6-(2-propynyloxy)pyrimidine], the melting point stood at 71.1 °C.

`CC#CCOc1cc(Cc2cccc(F)c2)ncn1` [present compound (100), 4-(2-butynyloxy)-6-(3-fluorobenzyl)pyrimidine] displayed a melting point of 51.5 °C. The same measure, in the same setting: the figure for `C#CCOc1cc(Oc2cc(Cl)ccc2Cl)ncn1` [present compound (25), 4-(2,5-dichlorophenoxy)-6-(2-propynyloxy)pyrimidine] is 87.7 °C; for `CC#CCOc1cc(OCC#CCC)ncn1` [present compound (6), 4-(2-butynyloxy)-6-(2-pentynyloxy)pyrimidine] it is 67.4 °C; for `C#CCOc1cc(Oc2ccccc2Cl)ncn1` [present compound (19), 4-(2-chlorophenoxy)-6-(2-propynyloxy)pyrimidine] it is 76.2 °C. On the same count and under the same terms, with `CC#CCOc1cc(Oc2ccc(F)c(C(F)(F)F)c2)ncn1` [present compound (48), 4-(2-butynyloxy)-6-(4-fluoro-3-trifluoromethylphenoxy)pyrimidine] the figure was 90.1 °C. The same measure, in the same setting: with `C#CCOc1cc(Oc2ccc(F)cc2)ncn1` [present compound (35), 4-(4-fluorophenoxy)-6-(2-propynyloxy)pyrimidine] the figure was 81.4 °C. The compound `C#CCOc1cc(-c2ccccc2)ncn1` [present compound (37), 4-phenyl-6-(2-propynyloxy)pyrimidine] came in with a melting point of 65.1 °C.

On to `C#CCOc1cc(OCC#C)ncn1` [present compound (52), 4,6-bis(2-propynyloxy)pyrimidine], for which the melting point came to 74 °C. `CC#CCOc1cc(OCC#CC)ncn1` [present compound (1), 4,6-bis(2-butynyloxy)pyrimidine] came in with a melting point of 82.9 °C. The same measure, in the same setting: the figure for `C#CCOc1cc(Oc2c(F)cccc2F)ncn1` [present compound (21), 4-(2,6-difluorophenoxy)-6-(2-propynyloxy)pyrimidine] is 67.2 °C; for `CC#CCOc1cc(Oc2ccc(Cl)cc2F)ncn1` [present compound (4), 4-(2-butynyloxy)-6-(4-chloro-2-fluorophenoxy)pyrimidine] it is 117.7 °C; for `CC#CCOc1cc(Oc2ccc(F)cc2)ncn1` [present compound (62), 4-(4-fluorophenoxy)-6-(2-butynyloxy)pyrimidine] it is 115.8 °C. The same measure, in the same setting: with `CC#CCOc1cc(-c2ccccc2)ncn1` [present compound (38), 4-(2-butynyloxy)-6-phenylpyrimidine] the figure was 59.6 °C. On the same count and under the same terms, the figure for `CC#CCOc1cc(Nc2cccc(F)c2F)ncn1` [present compound (73), 4-(N-(2,3-difluorophenyl)amino)-6-(2-butynyloxy)pyrimidine] is 147.6 °C. Turning to `C#CCOc1cc(Oc2ccc(Cl)cc2)ncn1` [present compound (14), 4-(4-chlorophenoxy)-6-(2-propynyloxy)pyrimidine], the melting point amounted to 100.3 °C. Same read-out and setting: with `C#CCOc1cc(Oc2ccc(Cl)cc2Cl)ncn1` [present compound (22), 4-(2,4-dichlorophenoxy)-6-(2-propynyloxy)pyrimidine] the figure was 106.7 °C; with `CC#CCOc1cc(Oc2cccc(C#N)c2)ncn1` [present compound (40), 4-(2-butynyloxy)-6-(3-cyanophenoxy)pyrimidine], 121.2 °C; with `CC#CCOc1cc(N(C)c2cccc(F)c2F)ncn1` [present compound (66), 4-(N-methyl-N-(2,3-difluorophenyl)amino)-6-(2-butynyloxy)pyrimidine], 77.5 °C. The same measure, in the same setting: the figure for `CC#CCOc1cc(Cc2c(F)cccc2F)ncn1` [present compound (80), 4-(2,6-difluorobenzyl)-6-(2-butynyloxy)pyrimidine] is 57.6 °C; for `C#CCOc1cc(Oc2cc(Cl)cc(Cl)c2)ncn1` [present compound (24), 4-(3,5-dichlorophenoxy)-6-(2-propynyloxy)pyrimidine] it is 136.5 °C. `CC#CCOc1cc(Oc2cccc(F)c2)ncn1` [present compound (61), 4-(3-fluorophenoxy)-6-(2-butynyloxy)pyrimidine] displayed a melting point of 60.1 °C. With `CC#CCOc1cc(Nc2ccccc2)ncn1` [present compound (53), 4-anilino-6-(2-butynyloxy)pyrimidine], the melting point was determined as 159.3 °C.
